In the test the test system is MV-4-11 cells. In words: Gene expression microarray analysis (Affymetrix PrimeView) and GSEA. Particulars: ProbeSet 11717914_a_at; LIST B. The test is classed as cell-based, human. Also noted: RFU PODN (11730768_x_at) / Fold change /veh PODN (11730768_x_at) / RFU LINC00158 (11744669_a_at) / Fold change /veh LINC00158 (11744669_a_at) / RFU DUSP10 (11751237_a_at) / Fold change /veh DUSP10 (11751237_a_at) / RFU ID3 (11757404_x_at) / Fold change /veh ID3 (11757404_x_at) / RFU PLEKHG5 (11737974_s_at) / Fold change /veh PLEKHG5 (11737974_s_at) / RFU LRRC4B (11730491_at) / Fold change /veh LRRC4B (11730491_at) / RFU GIMAP4 (11747438_a_at) / Fold change /veh GIMAP4 (11747438_a_at) / RFU KRT8 (11758183_x_at) / Fold change /veh KRT8 (11758183_x_at) / RFU CNN1 (11734310_a_at) / Fold change /veh CNN1 (11734310_a_at) / RFU VPS37D (11726825_at) / Fold change /veh VPS37D (11726825_at) / RFU C10orf10 (11716522_x_at) / Fold change /veh C10orf10 (11716522_x_at) / RFU KIR2DL2 /// KIR2DL4 /// KIR2DL5A /// KIR2DL5B /// KIR2DS1 /// KIR2DS2 /// KIR2DS3 /// KIR2DS4 /// KIR3DL3 /// KIR3DL3 /// KIR3DS1 (11738374_at) / Fold change /veh KIR2DL2 /// KIR2DL4 /// KIR2DL5A /// KIR2DL5B /// KIR2DS1 /// KIR2DS2 /// KIR2DS3 /// KIR2DS4 /// KIR3DL3 /// KIR3DL3 /// KIR3DS1 (11738374_at) / RFU C1QL1 (11718748_at) / Fold change /veh C1QL1 (11718748_at) / RFU TMPRSS4 (11747572_a_at) / Fold change /veh TMPRSS4 (11747572_a_at) / RFU HAMP (11756126_x_at) / Fold change /veh HAMP (11756126_x_at) / RFU RNFT2 (11725882_a_at) / Fold change /veh RNFT2 (11725882_a_at) / RFU NR4A2 (11747474_a_at) / Fold change /veh NR4A2 (11747474_a_at) / RFU ABCC12 (11746883_a_at) / Fold change /veh ABCC12 (11746883_a_at) / RFU TMEM136 (11760407_x_at) / Fold change /veh TMEM136 (11760407_x_at) / RFU CLDN22 /// WWC2 (11732394_at) / Fold change /veh CLDN22 /// WWC2 (11732394_at) / RFU HLA-DPB1 (11760878_x_at) / Fold change /veh HLA-DPB1 (11760878_x_at) / RFU SPINT1 (11716480_a_at) / Fold change /veh SPINT1 (11716480_a_at) / RFU GAP43 (11754022_s_at) / Fold change /veh GAP43 (11754022_s_at) / RFU A4GNT (11735810_at) / Fold change /veh A4GNT (11735810_at) / RFU PRB3 (11715151_x_at) / Fold change /veh PRB3 (11715151_x_at) / RFU TUBB4B (11761932_at) / Fold change /veh TUBB4B (11761932_at) / RFU CAPN14 (11732068_a_at) / Fold change /veh CAPN14 (11732068_a_at) / RFU TMCC2 (11721928_a_at) / Fold change /veh TMCC2 (11721928_a_at) / RFU IRGQ (11745062_a_at) / Fold change /veh IRGQ (11745062_a_at) / RFU FAM174B (11720279_a_at) / Fold change /veh FAM174B (11720279_a_at) / RFU TMPRSS4 (11748680_a_at) / Fold change /veh TMPRSS4 (11748680_a_at) / RFU FAM212B (11763350_a_at) / Fold change /veh FAM212B (11763350_a_at) / RFU PLEKHG5 (11743358_a_at) / Fold change /veh PLEKHG5 (11743358_a_at) / RFU ZSCAN30 (11745921_a_at) / Fold change /veh ZSCAN30 (11745921_a_at) / RFU CMKLR1 (11741424_a_at) / Fold change /veh CMKLR1 (11741424_a_at) / RFU LOC101060620 /// MAPK8IP1 (11723275_at) / Fold change /veh LOC101060620 /// MAPK8IP1 (11723275_at) / RFU SPTSSB (11747773_x_at) / Fold change /veh SPTSSB (11747773_x_at) / RFU PRSS12 (11739890_at) / Fold change /veh PRSS12 (11739890_at) / RFU BIN1 (11741810_x_at) / Fold change /veh BIN1 (11741810_x_at) / RFU WNT11 (11732464_a_at) / Fold change /veh WNT11 (11732464_a_at) / RFU C10orf10 (11716521_a_at) / Fold change /veh C10orf10 (11716521_a_at) / RFU C5orf56 (11738089_at) / Fold change /veh C5orf56 (11738089_at) / RFU CYB561 (11721691_x_at) / Fold change /veh CYB561 (11721691_x_at) / RFU ANKRD19P (11752326_a_at) / Fold change /veh ANKRD19P (11752326_a_at) / RFU OR2T12 /// OR2T33 /// OR2T8 (11738714_s_at) / Fold change /veh OR2T12 /// OR2T33 /// OR2T8 (11738714_s_at) / RFU VCAN (11748164_a_at) / Fold change /veh VCAN (11748164_a_at) / RFU JSRP1 (11732532_at) / Fold change /veh JSRP1 (11732532_at) / RFU KRTAP10-11 (11738290_x_at) / Fold change /veh KRTAP10-11 (11738290_x_at) / RFU MYO3A (11730013_a_at) / Fold change /veh MYO3A (11730013_a_at) / RFU EBF3 (11725865_a_at) / Fold change /veh EBF3 (11725865_a_at) / RFU CAMK2N1 (11719241_x_at) / Fold change /veh CAMK2N1 (11719241_x_at) / RFU C5orf56 (11738088_a_at) / Fold change /veh C5orf56 (11738088_a_at) / RFU OLFML3 (11715873_a_at) / Fold change /veh OLFML3 (11715873_a_at) / RFU LOC100653217 /// NTM (11731650_a_at) / Fold change /veh LOC100653217 /// NTM (11731650_a_at) / RFU MAPK11 (11762145_a_at) / Fold change /veh MAPK11 (11762145_a_at) / RFU FIZ1 (11724087_x_at) / Fold change /veh FIZ1 (11724087_x_at) / RFU OASL (11726364_x_at) / Fold change /veh OASL (11726364_x_at) / RFU SOX15 (11748057_x_at) / Fold change /veh SOX15 (11748057_x_at) / RFU CD79A (11719716_a_at) / Fold change /veh CD79A (11719716_a_at) / RFU HIST1H1D (11736915_at) / Fold change /veh HIST1H1D (11736915_at) / RFU CASKIN2 (11723855_a_at) / Fold change /veh CASKIN2 (11723855_a_at) / RFU LOC730098 (11760151_x_at) / Fold change /veh LOC730098 (11760151_x_at) / RFU OR4N2 (11742367_at) / Fold change /veh OR4N2 (11742367_at) / RFU PRRT2 (11749266_a_at) / Fold change /veh PRRT2 (11749266_a_at) / RFU SNX32 (11753110_a_at) / Fold change /veh SNX32 (11753110_a_at) / RFU CDHR5 (11726645_a_at) / Fold change /veh CDHR5 (11726645_a_at) / RFU RCAN1 (11760418_a_at) / Fold change /veh RCAN1 (11760418_a_at) / RFU FAM167A (11723789_a_at) / Fold change /veh FAM167A (11723789_a_at) / RFU FAM26E (11764081_at) / Fold change /veh FAM26E (11764081_at) / RFU ISYNA1 (11749810_s_at) / Fold change /veh ISYNA1 (11749810_s_at) / RFU ACY1 (11761880_at) / Fold change /veh ACY1 (11761880_at) / RFU 11764098_at / Fold change /veh 11764098_at / RFU SAMD14 (11745864_x_at) / Fold change /veh SAMD14 (11745864_x_at) / RFU NPB (11741838_a_at) / Fold change /veh NPB (11741838_a_at) / RFU TMPRSS6 (11731388_a_at) / Fold change /veh TMPRSS6 (11731388_a_at) / RFU KRTAP10-2 (11738614_at) / Fold change /veh KRTAP10-2 (11738614_at) / RFU ARHGAP8 /// PRR5-ARHGAP8 (11727945_x_at) / Fold change /veh ARHGAP8 /// PRR5-ARHGAP8 (11727945_x_at) / RFU KRTAP5-7 /// NADSYN1 (11734609_at) / Fold change /veh KRTAP5-7 /// NADSYN1 (11734609_at) / RFU RASL12 (11751679_a_at) / Fold change /veh RASL12 (11751679_a_at) / RFU CDKN2B (11736163_a_at) / Fold change /veh CDKN2B (11736163_a_at) / RFU PRF1 (11729649_at) / Fold change /veh PRF1 (11729649_at) / RFU, ZNF638 /// ZNF638-IT1 / Fold change vs veh, ZNF638 /// ZNF638-IT1 / RFU, PANK3 / Fold change vs veh, PANK3 / RFU, SH3YL1 / Fold change vs veh, SH3YL1 / RFU, ZEB2 / Fold change vs veh, ZEB2 / RFU, NRIP1 / Fold change vs veh, NRIP1 / RFU, PTTG1IP / Fold change vs veh, PTTG1IP / RFU, CAPN2 / Fold change vs veh, CAPN2 / RFU, MED14 / Fold change vs veh, MED14 / RFU, SNORA58 / Fold change vs veh, SNORA58 / RFU, C1orf63 / Fold change vs veh, C1orf63 / RFU, LRRFIP1 / Fold change vs veh, LRRFIP1 / RFU, NDUFAF7 / Fold change vs veh, NDUFAF7 / RFU, SLC12A2 / Fold change vs veh, SLC12A2 / RFU, IBTK / Fold change vs veh, IBTK / RFU, ESF1 / Fold change vs veh, ESF1 / Fold change vs veh, TMEM50B / RFU, TAOK1 / Fold change vs veh, TAOK1 / RFU, ACBD3 / Fold change vs veh, ACBD3 / RFU, TMA16 / Fold change vs veh, TMA16 / RFU, RWDD3 / Fold change vs veh, RWDD3 / RFU, BCAT1 / Fold change vs veh, BCAT1 / RFU, EDEM3 / Fold change vs veh, EDEM3 / RFU, TMEM33 / Fold change vs veh, TMEM33 / RFU, WDR75 / Fold change vs veh, WDR75 / RFU, AHCTF1 / Fold change vs veh, AHCTF1 / RFU, TFRC / Fold change vs veh, TFRC / RFU, ZDHHC17 / Fold change vs veh, ZDHHC17 / RFU, NOM1 / Fold change vs veh, NOM1 / RFU, ARL8B / Fold change vs veh, ARL8B / RFU, ZBTB11 / Fold change vs veh, ZBTB11 / RFU, TAMM41 / Fold change vs veh, TAMM41 / RFU, KIAA1704 /// LOC100996395 / Fold change vs veh, KIAA1704 /// LOC100996395 / RFU, ING1 / Fold change vs veh, ING1 / RFU, TRMT61B / Fold change vs veh, TRMT61B / RFU, FUBP3 / Fold change vs veh, FUBP3 / RFU, TP53 / Fold change vs veh, TP53 / RFU, TNKS2 / Fold change vs veh, TNKS2 / RFU, ZFP14 / Fold change vs veh, ZFP14 / RFU, ACTR2 / Fold change vs veh, ACTR2 / RFU, PPP3R1 / Fold change vs veh, PPP3R1 / RFU, PIK3R1 / Fold change vs veh, PIK3R1 / RFU, HNRNPA1 / Fold change vs veh, HNRNPA1 / RFU, RNF170 / Fold change vs veh, RNF170 / RFU, ZNF28 / Fold change vs veh, ZNF28 / RFU, RNGTT / Fold change vs veh, RNGTT / RFU, OGT / Fold change vs veh, OGT / RFU, BRD1 / Fold change vs veh, BRD1 / RFU, MARS / Fold change vs veh, MARS / RFU, ZNF655 / Fold change vs veh, ZNF655 / RFU, FAHD1 / Fold change vs veh, FAHD1 / RFU, BDP1 / Fold change vs veh, BDP1 / RFU, LRRCC1 / Fold change vs veh, LRRCC1 / RFU, ARID1A / Fold change vs veh, ARID1A / RFU, ZNF146 / Fold change vs veh, ZNF146 / RFU, ZNF330 / Fold change vs veh, ZNF330 / RFU, GPN3 / Fold change vs veh, GPN3 / RFU, C9orf123 / Fold change vs veh, C9orf123 / RFU, N4BP2L2 / Fold change vs veh, N4BP2L2 / RFU, ARFIP1 / Fold change vs veh, ARFIP1 / RFU, FAM179B / Fold change vs veh, FAM179B / RFU, BCL10 / Fold change vs veh, BCL10 / RFU, UHRF1BP1L / Fold change vs veh, UHRF1BP1L / RFU, BET1 / Fold change vs veh, BET1 / RFU, CNOT2 / Fold change vs veh, CNOT2 / RFU, ZNF268 / Fold change vs veh, ZNF268 / Fold change vs veh, ZNF507 / RFU, DGCR2 / Fold change vs veh, DGCR2 / RFU, WDSUB1 / Fold change vs veh, WDSUB1 / Fold change vs veh, HSP90B1 /// MIR3652 / RFU, ADSS / Fold change vs veh, ADSS / RFU, GK / Fold change vs veh, GK / RFU, ZNF148 / Fold change vs veh, ZNF148 / RFU, TAF9 / Fold change vs veh, TAF9 / RFU, SLC1A5 / Fold change vs veh, SLC1A5 / RFU, SLMO2 / Fold change vs veh, SLMO2 / RFU, ABCC4 / Fold change vs veh, ABCC4 / RFU, LOC101060439 /// RAP1B / Fold change vs veh, LOC101060439 /// RAP1B / RFU, RFX7 / Fold change vs veh, RFX7 / RFU, GTPBP10 / Fold change vs veh, GTPBP10 / RFU, CNEP1R1 / Fold change vs veh, CNEP1R1 / RFU, BIVM-ERCC5 /// ERCC5 / Fold change vs veh, BIVM-ERCC5 /// ERCC5 / RFU, ILF3 / Fold change vs veh, ILF3 / RFU 11762660_at / Fold change /veh 11762660_at / RFU VCAN (11757783_s_at) / Fold change /veh VCAN (11757783_s_at) / RFU DDX43 (11728927_at) / Fold change /veh DDX43 (11728927_at) / RFU KRT8 (11758188_x_at) / Fold change /veh KRT8 (11758188_x_at) / RFU NKD1 (11759106_at) / Fold change /veh NKD1 (11759106_at) / RFU SRD5A1 (11742802_a_at) / Fold change /veh SRD5A1 (11742802_a_at) / RFU TPSAB1 /// TPSB2 (11721975_s_at) / Fold change /veh TPSAB1 /// TPSB2 (11721975_s_at) / RFU GSTM3 (11746129_a_at) / Fold change /veh GSTM3 (11746129_a_at) / RFU IL23R (11737362_x_at) / Fold change /veh IL23R (11737362_x_at) / RFU TMEM51 (11727254_a_at) / Fold change /veh TMEM51 (11727254_a_at) / RFU PIWIL2 (11732686_x_at) / Fold change /veh PIWIL2 (11732686_x_at) / RFU ORM1 (11744905_x_at) / Fold change /veh ORM1 (11744905_x_at) / RFU CCDC152 (11743942_at) / Fold change /veh CCDC152 (11743942_at) / RFU ECM1 (11717891_a_at) / Fold change /veh ECM1 (11717891_a_at) / RFU IL23R (11748794_a_at) / Fold change /veh IL23R (11748794_a_at) / RFU TNFAIP8L3 (11732012_x_at) / Fold change /veh TNFAIP8L3 (11732012_x_at) / RFU MBOAT4 (11741988_at) / Fold change /veh MBOAT4 (11741988_at) / RFU 11764193_at / Fold change /veh 11764193_at / RFU TMEM53 (11763286_at) / Fold change /veh TMEM53 (11763286_at) / RFU MAGEB2 (11727129_at) / Fold change /veh MAGEB2 (11727129_at) / RFU TMEM200A (11744735_a_at) / Fold change /veh TMEM200A (11744735_a_at) / RFU CCDC152 (11751479_a_at) / Fold change /veh CCDC152 (11751479_a_at) / RFU FAM211A (11726209_a_at) / Fold change /veh FAM211A (11726209_a_at) / RFU RGS16 (11746705_a_at) / Fold change /veh RGS16 (11746705_a_at) / RFU VCAN (11755009_s_at) / Fold change /veh VCAN (11755009_s_at) / RFU RHOB (11743442_s_at) / Fold change /veh RHOB (11743442_s_at) / RFU RGS16 (11720943_a_at) / Fold change /veh RGS16 (11720943_a_at) / RFU RGS16 (11720944_at) / Fold change /veh RGS16 (11720944_at) / RFU, VPS4B / Fold change vs veh, VPS4B / RFU, CREB1 / Fold change vs veh, CREB1 / RFU, DNAJC13 / Fold change vs veh, DNAJC13 / RFU, GNAQ / Fold change vs veh, GNAQ / RFU, CDK5R1 / Fold change vs veh, CDK5R1 / RFU, ZRANB3 / Fold change vs veh, ZRANB3 / RFU, CUL4A / Fold change vs veh, CUL4A / RFU, CCNY / Fold change vs veh, CCNY / RFU, UFL1 / Fold change vs veh, UFL1 / RFU, COG3 / Fold change vs veh, COG3 / RFU, DIAPH2 / Fold change vs veh, DIAPH2 / RFU, SKA2 / Fold change vs veh, SKA2 / RFU, AFF3 / Fold change vs veh, AFF3 / RFU, LMF1 / Fold change vs veh, LMF1 / RFU, IPO11 / Fold change vs veh, IPO11 / RFU, DFFB / Fold change vs veh, DFFB / RFU, FOXP1 / Fold change vs veh, FOXP1 / RFU, CARD8 / Fold change vs veh, CARD8 / RFU, STRN3 / Fold change vs veh, STRN3 / RFU, ADK / Fold change vs veh, ADK / RFU, RASSF2 / Fold change vs veh, RASSF2 / RFU, WIPF1 / Fold change vs veh, WIPF1 / RFU, LARP1B / Fold change vs veh, LARP1B / RFU, RASA1 / Fold change vs veh, RASA1 / RFU, RB1 / Fold change vs veh, RB1 / RFU, PPFIA1 / Fold change vs veh, PPFIA1 / RFU, MAT2A / Fold change vs veh, MAT2A / RFU, CCT5 / Fold change vs veh, CCT5 / RFU, WDR92 / Fold change vs veh, WDR92 / RFU, CUX1 / Fold change vs veh, CUX1 / RFU, TTC7A / Fold change vs veh, TTC7A / RFU, TMEM135 / Fold change vs veh, TMEM135 / RFU, DEPTOR / Fold change vs veh, DEPTOR / RFU, CPM / Fold change vs veh, CPM / RFU, DNAJB6 / Fold change vs veh, DNAJB6 / RFU, CACNA2D3 / Fold change vs veh, CACNA2D3 / RFU, DTX4 / Fold change vs veh, DTX4 / RFU, TFCP2 / Fold change vs veh, TFCP2 / RFU, GMCL1 /// GMCL1P1 / Fold change vs veh, GMCL1 /// GMCL1P1 / RFU, AEBP2 / Fold change vs veh, AEBP2 / RFU, SNHG1 /// SNORD22 /// SNORD25 /// SNORD26 /// SNORD27 /// SNORD28 /// SNORD29 /// SNORD31 / Fold change vs veh, SNHG1 /// SNORD22 /// SNORD25 /// SNORD26 /// SNORD27 /// SNORD28 /// SNORD29 /// SNORD31 / Fold change (Aza/veh), C12orf56 (ProbeSet 11735607_a_at) / Fold change (ACY-1035/veh), C12orf56 (ProbeSet 11735607_a_at) / Fold change (Aza/veh), FGFR1OP (ProbeSet 11751329_s_at) / Fold change (ACY-1035/veh), FGFR1OP (ProbeSet 11751329_s_at) / Fold change (Aza/veh), VPS36 (ProbeSet 11739960_a_at) / Fold change (ACY-1035/veh), VPS36 (ProbeSet 11739960_a_at) / RFU SYPL1 (11715823_x_at) / Fold change /veh SYPL1 (11715823_x_at) / RFU IGFBP7 (11715501_s_at) / Fold change /veh IGFBP7 (11715501_s_at) / RFU REEP3 (11722064_at) / Fold change /veh REEP3 (11722064_at) / RFU IGLL1 (11728026_x_at) / Fold change /veh IGLL1 (11728026_x_at): dose or concentration left out as unconfirmed.

As for `Nc1ccc(-c2cccs2)cc1NC(=O)c1ccc2c(c1)cc(C1CC1)n2CCN1CCOCC1` [ACY-1035], the “RFU, BIVM-ERCC5 /// ERCC5” value is reported as 177.23 RFU.

Source of the values: paper PMC5218480 (PLoS ONE, 2017).
